Assay results taken from EP4806897A1, “AZA-BRIDGED RING DERIVATIVE” (Chia Tai Tianqing Pharmaceutical Group Co., Ltd., priority 2023, dated 2025).

Columns and labels:
MOLM-13 cells = experiment: In vitro cell activity assay (CCK-8 proliferation), MOLM-13; format: cell-based; conditions: Homo sapiens, CCK-8, 72-120 h, read-out: IC50 (nM) for inhibitory activity against proliferation of MOLM-13 cells
Description: (§1) MOLM-13 cells or MV-4-11 cells (source: Nanjing Cobioer Biosciences Co., Ltd.) in a good growth state were taken and seeded into a 96-well plate (100 µL/well) at 2000-10000 cells/well. After the cells were cultured overnight in a cell incubator at 37 °C, the compounds were subjected to gradient dilution and added using a pipettor, with 2 parallel replicate wells in each group. Meanwhile, a control group was set. After the cells were cultured in a cell incubator at 37 °C for another 72-120 h, the detection reagent CCK-8 (manufacturer: Dojindo Laboratories, Japan; 10 µL/well) was added. After the cells were cultured at 37 °C for another 3-5 h, absorbance values were measured at […] using a PerkinElmer Envision multi-functional microplate reader. Four-parameter analysis was performed in GraphPad Prism software to fit dose-response curves and calculate IC50 values. A represents that IC50 < 50 nM. Table 1. Inhibitory activity against cell proliferation

MV-4-11 cells = experiment: In vitro cell activity assay (CCK-8 proliferation), MV-4-11; format: cell-based; conditions: Homo sapiens, MV4-11; CCK-8, 72-120 h; read-out: IC50 (nM) for inhibitory activity against proliferation of MV-4-11 cells
Description: as §1

Menin-MLL interaction = target: T1, Menin-MLL interaction (Homo sapiens, UniProt O00255); experiment: Fluorescence polarization assay of Menin-MLL interaction; conditions: GST-MENIN (1-615 aa) 8 nM, FITC-MLL15-43 8 nM; read-out: IC50 (nM) for inhibitory activity against Menin-MLL protein binding
T1 construct: GST-MENIN (1-615 aa) and FITC-MLL15-43 were diluted with an FP buffer
T1 sequence (O00255 1-615 isoform O00255-1): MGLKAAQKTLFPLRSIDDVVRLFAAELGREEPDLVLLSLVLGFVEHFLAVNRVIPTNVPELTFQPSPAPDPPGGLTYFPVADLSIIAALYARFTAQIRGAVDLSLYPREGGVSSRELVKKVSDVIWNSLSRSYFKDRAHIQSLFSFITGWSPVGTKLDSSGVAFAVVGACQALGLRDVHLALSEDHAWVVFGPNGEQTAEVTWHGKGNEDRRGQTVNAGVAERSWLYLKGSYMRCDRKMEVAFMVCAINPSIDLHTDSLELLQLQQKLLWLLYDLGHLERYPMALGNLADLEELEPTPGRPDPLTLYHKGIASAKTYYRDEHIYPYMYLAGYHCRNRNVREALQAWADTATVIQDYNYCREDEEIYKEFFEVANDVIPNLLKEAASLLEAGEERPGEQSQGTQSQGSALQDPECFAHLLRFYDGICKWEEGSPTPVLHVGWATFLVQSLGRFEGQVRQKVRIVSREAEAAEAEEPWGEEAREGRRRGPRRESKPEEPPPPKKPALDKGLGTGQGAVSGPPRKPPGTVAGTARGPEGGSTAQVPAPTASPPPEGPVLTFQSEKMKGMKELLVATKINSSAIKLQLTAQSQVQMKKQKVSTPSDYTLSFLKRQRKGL
Description: The binding activity of the compounds for the menin protein was determined by a fluorescence polarization assay. GST-MENIN (1-615 aa) and FITC-MLL15-43 were diluted with an FP buffer (50 mM Tris-HCl pH 7.5, 50 mM NaCl, 1 mM DTT, 0.01% BSA), and the mixed solution of GST-MENIN (1-615 aa) at a final concentration of 8 nM and FITC-MLL15-43 at a final concentration of 8 nM was added to a black 384-well microtiter plate at 10 µL/well. The plate was centrifuged at 2500 rpm for 1 min and incubated at room temperature in the dark for 1 h. 5 µL of diluted compound (7 concentration points, 4-fold serial dilution, with blank control and negative control wells set) was added, and the plate was centrifuged at 2500 rpm for 1 min and incubated at room temperature in the dark for 3 h. After incubation, FP (480/535) values were measured using a PerkinElmer Envision multi-functional microplate reader, and the ability of the compounds to inhibit the Menin-MLL interaction was determined by calculating the inhibition rate (%) for each compound concentration according to formula 1; formula 1: inhibition rate (%) = 1 - (Maximum mP Control - mP of administration group)/(Maximum mP Control - minimum mP Control) × 100%. Four-parameter analysis was performed in GraphPad Prism software to fit dose-response curves and calculate IC50 values. A represents that IC50 < 50 nM. Table 2. Inhibitory activity against Menin-MLL protein binding

[1] = In vitro liver microsomal stability, mouse; conditions: mouse liver microsomes 0.5 mg/mL, compound 1 µM, 37 °C
Description: (§2) Liver microsome incubation samples were prepared by mixing a PBS buffer (pH 7.4), a liver microsome solution from various species (human, mouse, monkey, dog, and rat) (0.5 mg/mL), a test compound (final concentration: 1 µM), and an NADPH + MgCl2 solution, followed by incubation at 37 °C and 300 rpm. Samples were collected from the reaction solution at the time points of 15 min and 60 min. Zero-hour samples were prepared by mixing a PBS buffer (pH 7.4), a liver microsome solution (0.5 mg/mL), and a test compound. An acetonitrile solution containing an internal standard was added to the samples, and supernatants were prepared by protein precipitation, diluted, and then assayed by LC-MS/MS.

[2] = In vitro liver microsomal stability, human; conditions: human liver microsomes 0.5 mg/mL, compound 1 µM, 37 °C
Description: as §2

| Compound | IC50 (MOLM-13 cells) [nM] | IC50 (MV-4-11 cells) [nM] | IC50 (Menin-MLL interaction) [nM] | Residuals at 60 min (%) [1] [%] | Residuals at 60 min (%) [2] [%] |
| --- | --- | --- | --- | --- | --- |
| C=C1C[C@@H]2CC[C@H]1[C@@H](C(=O)N1CCC3(CC1)CN(c1ncncc1Oc1ccc(F)cc1C(=O)N(CC)C(C)C)C3)N2 [Compound 2] | < 50 | < 50 | < 50 | – | – |
| C=C1C[C@@H]2CC[C@H]1[C@@H](C(=O)N1CCC3(CC1)CN(c1ncncc1Oc1ccc(F)cc1-c1cccnc1C1CC1)C3)N2 [Compound 3] | < 50 | < 50 | < 50 | – | – |
| C=C1C[C@@H]2CC[C@H]1[C@@H](C(=O)N1CCC3(CC1)CN(c1ncncc1Oc1ccc(F)cc1-c1ccnn1C(C)C)C3)N2 [Compound 4] | < 50 | < 50 | < 50 | – | – |
| C=C1CC2CCC1C(C(=O)N1CCC3(CC1)CN(c1ncncc1Oc1ccc(F)cc1C(=O)N(C)C(C)C)C3)N2 (stereo not shown) [Compound 6] | – | < 50 | – | – | – |
| C=C1C[C@@H]2CC[C@H]1[C@@H](C(=O)N1CCC3(CC1)CN(c1ncnnc1Oc1ccc(F)cc1C(=O)N(CC)C(C)C)C3)N2 [Compound 27] | < 50 | < 50 | < 50 | >60 | >40 |
| C=C1C[C@@H]2CC[C@H]1[C@@H](C(=O)N1CCC3(CC1)CN(c1ncnnc1Oc1ccc(F)cc1-c1cccnc1C1CC1)C3)N2 [Compound 31] | < 50 | < 50 | < 50 | – | – |
| C=C1C[C@@H]2CC[C@H]1[C@@H](C(=O)N1CCC3(CC1)CN(c1ncnnc1Oc1ccc(F)cc1-c1ccnn1C(C)C)C3)N2 [Compound 32] | – | < 50 | < 50 | – | – |
| C=C1C[C@@H]2CC[C@H]1[C@@H](C(=O)N1CCC3(CC1)CN(c1ncnnc1Oc1ccc(F)cc1-c1cncnc1C1CC1)C3)N2 [Compound 33] | – | < 50 | < 50 | >60 | – |
| C=C1CC2CCC1C(C(=O)N1CCC3(CC1)CN(c1ncnnc1Oc1ccc(F)cc1-c1cccnc1OC)C3)N2 (stereo not shown) [Compound 34] | – | < 50 | – | – | – |
| C=C1C[C@@H]2CC[C@H]1[C@@H](C(=O)N1CCC3(CC1)CN(c1ccnnc1Oc1ccc(F)cc1-c1cccnc1C1CC1)C3)N2 [Compound 35] | < 50 | < 50 | < 50 | – | – |
| C=C1C[C@@H]2CC[C@H]1[C@@H](C(=O)N1CCC3(CC1)CN(c1ccnnc1Oc1ccc(F)cc1C(=O)N(CC)C(C)C)C3)N2 [Compound 36] | < 50 | < 50 | < 50 | – | – |
| C=C1C[C@@H]2CC[C@H]1[C@@H](C(=O)N1CCC3(CC1)CN(c1ncnnc1Oc1ccc(F)cc1C(=O)N1C(C)CCCC1C)C3)N2 (stereo partly shown) [Compound 46] | – | < 50 | < 50 | – | – |
| C=C1C[C@@H]2CC[C@H]1[C@@H](C(=O)N1CCC3(CC1)CN(c1ncnnc1Oc1ccc(F)cc1-c1cnccc1OC)C3)N2 [Compound 48] | – | – | < 50 | >60 | >40 |
| C=C1C[C@@H]2CC[C@H]1[C@@H](C(=O)N1CCC3(CC1)CN(c1ncnnc1Oc1ccc(F)cc1C(=O)N(C(C)C)C(C)C)C3)N2 [Compound 50] | < 50 | < 50 | < 50 | – | – |
| C=C1C[C@@H]2CC[C@H]1[C@@H](C(=O)N1CCC3(CC1)CN(c1ncnnc1Oc1ccc(F)cc1-c1cc(C(F)(F)F)cnc1C1CC1)C3)N2 [Compound 54] | < 50 | < 50 | < 50 | – | – |
| C=C1C[C@@H]2CC[C@H]1[C@@H](C(=O)N1CC3(C1)CN(c1ncnnc1Oc1ccc(F)cc1C(=O)N(CC)C(C)C)C3)N2 [Compound 56] | < 50 | < 50 | < 50 | – | >40 |
| C=C1CC2CCC1C(C(=O)N1CCC3(CC1)CN(c1ncnnc1Oc1c(F)cc(F)cc1-c1cccnc1C1CC1)C3)N2 (stereo not shown) [Compound 58] | – | < 50 | – | – | – |
| C=C1C[C@@H]2CC[C@H]1[C@@H](C(=O)N1CCC3(CC1)CN(c1ncnnc1Oc1ccc(F)cc1-c1ccc(O)nc1C1CC1)C3)N2 [Compound 64] | – | < 50 | < 50 | >60 | >40 |
| C=C1CC2CCC1C(C(=O)N1CCC3(CC1)CN(c1ncnnc1Oc1ccc(F)cc1-c1nccn1C(C)C)C3)N2 (stereo not shown) [Compound 65] | – | < 50 | – | – | – |
| C=C1CC2CCC1C(C(=O)N1CCC3(CC1)CN(c1ncnnc1Oc1ccc(F)cc1-c1nccnc1C1CC1)C3)N2 (stereo not shown) [Compound 66] | – | < 50 | – | – | – |
| C=C1C[C@@H]2CC[C@H]1[C@@H](C(=O)N1CC3(C1)CN(c1ncnnc1Oc1ccc(F)cc1-c1cccnc1C1CC1)C3)N2 [Compound 67] | < 50 | < 50 | < 50 | – | – |
| C=C1CC2CCC1C(C(=O)N1CCC3(CC1)CN(c1ncnnc1Oc1ccc(F)cc1-c1ccnn1C1CC1)C3)N2 (stereo not shown) [Compound 70] | – | < 50 | – | – | – |
| C=C1C[C@@H]2CC[C@H]1[C@@H](C(=O)N1CC3(C1)CN(c1ncnnc1Oc1ccc(F)cc1-c1ccnn1C(C)C)C3)N2 [Compound 71] | < 50 | < 50 | < 50 | – | – |
| C=C1C[C@@H]2CC[C@H]1[C@@H](C(=O)N1CC3(C1)CN(c1ncnnc1Oc1ccc(F)cc1-c1cncnc1C1CC1)C3)N2 [Compound 73] | < 50 | < 50 | < 50 | >60 | – |
| C=C1C[C@@H]2CC[C@H]1[C@@H](C(=O)N1CCC3(CC1)CN(c1ncnnc1Oc1ccc(F)cc1-c1ccnnc1C1CC1)C3)N2 [Compound 74] | < 50 | < 50 | < 50 | – | – |
| C=C1CC2CCC1C(C(=O)N1CCCC3(CC1)CN(c1ncncc1Oc1ccc(F)cc1-c1cccnc1C1CC1)C3)N2 (stereo not shown) [Compound 76] | < 50 | < 50 | – | – | – |
| C=C1CC2CCC1C(C(=O)N1CCCC3(CC1)CN(c1ncncc1Oc1ccc(F)cc1-c1cncnc1C1CC1)C3)N2 (stereo not shown) [Compound 77] | < 50 | < 50 | – | – | – |
